Measurements published in patent US9511058B2, “Methods for using carboxamide, sulfonamide and amine compounds” (Rigel Pharmaceuticals, Inc., priority 2010, dated 2016).
Counter-ions that a name gives are not always drawn.

Molecular target: AMPK
Test: AMPK activation, enzyme-linked immunosorbent assay
Assay type: biochemical
Conditions: compounds of Table 1 (Table 6)

EC50 [µM]	EC50 (formate salt) [µM]	Structure (SMILES)
< 0.1		O=C(NC1CCN(Cc2cccnc2)CC1)c1cc2cc(OC3CCN(c4ccc(C(F)(F)F)cc4)CC3)ccc2o1 [1-101, N-(1-(pyridin-3-ylmethyl)piperidin-4-yl)-5-(1-(4-(trifluoromethyl)phenyl)piperidin-4-yloxy)benzofuran-2-carboxamide]
1 to 5		CN(C(=O)c1cc2cc(OC3CCN(c4ccc(C(F)(F)F)cc4)CC3)ccc2o1)C1CCN(C(=O)OC(C)(C)C)CC1 [1-102, tert-butyl 4-(N-methyl-5-(1-(4-(trifluoromethyl)phenyl)piperidin-4-yloxy)benzofuran-2-carboxamido)piperidine-1-carboxylate]
1 to 5		CN(C(=O)c1cc2cc(OC3CCN(c4ccc(C(F)(F)F)cc4)CC3)ccc2o1)C1CCNCC1 [1-103, N-methyl-N-(piperidin-4-yl)-5-(1-(4-(trifluoromethyl)phenyl)piperidin-4-yloxy)benzofuran-2-carboxamide]
	< 0.1	O=C(NC1CCN(Cc2ccncc2)CC1)c1cc2cc(OC3CCN(c4ccc(C(F)(F)F)cc4)CC3)ccc2o1 [1-105, N-(1-(pyridin-4-ylmethyl)piperidin-4-yl)-5-(1-(4-(trifluoromethyl)phenyl)piperidin-4-yloxy)benzofuran-2-carboxamide, formate salt]
0.1 to 0.5		O=C(NC1CCN(S(=O)(=O)c2cccnc2)CC1)c1cc2ccc(OC3CCN(c4ccc(C(F)(F)F)cc4)CC3)cc2o1 [1-106, N-(1-(pyridin-3-ylsulfonyl)piperidin-4-yl)-6-(1-(4-(trifluoromethyl)phenyl)piperidin-4-yloxy)benzofuran-2-carboxamide]
< 0.1		O=C(NC1CCN(C(=O)c2ccncc2)CC1)c1cc2ccc(OC3CCN(c4ccc(C(F)(F)F)cc4)CC3)cc2o1 [1-112, N-(1-isonicotinoylpiperidin-4-yl)-6-(1-(4-(trifluoromethyl)phenyl)piperidin-4-yloxy)benzofuran-2-carboxamide]
0.1 to 0.5		CC(C)(C)OC(=O)N1CCC(NC(=O)c2cc3cc(OC4CCN(Cc5ccc(C#N)cc5)CC4)ccc3o2)CC1 [1-113, tert-butyl 4-(5-(1-(4-cyanobenzyl)piperidin-4-yloxy)benzofuran-2-carboxamido)piperidine-1-carboxylate]
< 0.1		O=C(NC1CCN(C(=O)c2ccncc2)CC1)c1cc2cc(OC3CCN(c4ccc(C(F)(F)F)cc4)CC3)ccc2o1 [1-115, N-(1-isonicotinoylpiperidin-4-yl)-5-(1-(4-(trifluoromethyl)phenyl)piperidin-4-yloxy)benzofuran-2-carboxamide]
< 0.1		CN(C(=O)c1cc2cc(OC3CCN(c4ccc(C(F)(F)F)cc4)CC3)ccc2o1)C1CCN(Cc2ccccn2)CC1 [1-117, N-methyl-N-(1-(pyridin-2-ylmethyl)piperidin-4-yl)-5-(1-(4-(trifluoromethyl)phenyl)piperidin-4-yloxy)benzofuran-2-carboxamide]
0.1 to 0.5		CN(C(=O)c1cc2cc(OC3CCN(c4ccc(C(F)(F)F)cc4)CC3)ccc2o1)C1CCN(C(=O)c2ccncc2)CC1 [1-118, N-(1-isonicotinoylpiperidin-4-yl)-N-methyl-5-(1-(4-(trifluoromethyl)phenyl)piperidin-4-yloxy)benzofuran-2-carboxamide]
1 to 5		CC(C)(C)OC(=O)N1CC[C@@H](NC(=O)c2cc3cc(OC4CCN(c5ccc(C(F)(F)F)cc5)CC4)ccc3o2)C1 [1-120, (R)-tert-butyl 3-(5-(1-(4-(trifluoromethyl)phenyl)piperidin-4-yloxy)benzofuran-2-carboxamido)pyrrolidine-1-carboxylate]
> 10		O=C(N[C@@H]1CCNC1)c1cc2cc(OC3CCN(c4ccc(C(F)(F)F)cc4)CC3)ccc2o1 [1-121, (R)-N-(pyrrolidin-3-yl)-5-(1-(4-(trifluoromethyl)phenyl)piperidin-4-yloxy)benzofuran-2-carboxamide]
0.1 to 0.5		O=C(N[C@@H]1CCN(Cc2ccncc2)C1)c1cc2cc(OC3CCN(c4ccc(C(F)(F)F)cc4)CC3)ccc2o1 [1-122, (R)-N-(1-(pyridin-4-ylmethyl)pyrrolidin-3-yl)-5-(1-(4-(trifluoromethyl)phenyl)piperidin-4-yloxy)benzofuran-2-carboxamide]
0.1 to 0.5		O=C(N[C@@H]1CCN(Cc2cccnc2)C1)c1cc2cc(OC3CCN(c4ccc(C(F)(F)F)cc4)CC3)ccc2o1 [1-123, (R)-N-(1-(pyridin-3-ylmethyl)pyrrolidin-3-yl)-5-(1-(4-(trifluoromethyl)phenyl)piperidin-4-yloxy)benzofuran-2-carboxamide]
1 to 5		O=C(N[C@@H]1CCN(Cc2ccccn2)C1)c1cc2cc(OC3CCN(c4ccc(C(F)(F)F)cc4)CC3)ccc2o1 [1-124, (R)-N-(1-(pyridin-2-ylmethyl)pyrrolidin-3-yl)-5-(1-(4-(trifluoromethyl)phenyl)piperidin-4-yloxy)benzofuran-2-carboxamide]
1 to 5		O=C(N[C@@H]1CCN(C(=O)c2ccncc2)C1)c1cc2cc(OC3CCN(c4ccc(C(F)(F)F)cc4)CC3)ccc2o1 [1-125, (R)-N-(1-isonicotinoylpyrrolidin-3-yl)-5-(1-(4-(trifluoromethyl)phenyl)piperidin-4-yloxy)benzofuran-2-carboxamide]
1 to 5		O=C(N[C@@H]1CCN(S(=O)(=O)c2cccnc2)C1)c1cc2cc(OC3CCN(c4ccc(C(F)(F)F)cc4)CC3)ccc2o1 [1-126, (R)-N-(1-(pyridin-3-ylsulfonyl)pyrrolidin-3-yl)-5-(1-(4-(trifluoromethyl)phenyl)piperidin-4-yloxy)benzofuran-2-carboxamide]
1 to 5		CC(C)(C)OC(=O)N1CC[C@H](NC(=O)c2cc3cc(OC4CCN(Cc5ccc(Cl)cc5)CC4)ccc3o2)C1 [1-127, (S)-tert-butyl 3-(5-(1-(4-chlorobenzyl)piperidin-4-yloxy)benzofuran-2-carboxamido)pyrrolidine-1-carboxylate]

More lines, now with the values behind:

Structure (SMILES)	EC50 [µM]	EC50 (formate salt) [µM]
CN(C(=O)c1cc2cc(OC3CCN(c4ccc(C(F)(F)F)cc4)CC3)ccc2o1)C1CCN(Cc2ccncc2)CC1 [1-104, N-methyl-N-(1-(pyridin-4-ylmethyl)piperidin-4-yl)-5-(1-(4-(trifluoromethyl)phenyl)piperidin-4-yloxy)benzofuran-2-carboxamide]	0.1 to 0.5	
CN(C(=O)c1cc2cc(OC3CCN(c4ccc(C(F)(F)F)cc4)CC3)ccc2o1)C1CCN(Cc2ccc(C#N)cc2)CC1 [1-107, N-(1-(4-cyanobenzyl)piperidin-4-yl)-N-methyl-5-(1-(4-(trifluoromethyl)phenyl)piperidin-4-yloxy)benzofuran-2-carboxamide]	< 0.1	
O=C(NC1CCN(S(=O)(=O)c2cccnc2)CC1)c1cc2ccc(OC3CCN(c4ccc(OC(F)(F)F)cc4)CC3)cc2o1 [1-108, N-(1-(pyridin-3-ylsulfonyl)piperidin-4-yl)-6-(1-(4-(trifluoromethoxy)phenyl)piperidin-4-yloxy)benzofuran-2-carboxamide]	0.1 to 0.5	
CN(C(=O)c1cc2cc(OC3CCN(c4ccc(C(F)(F)F)cc4)CC3)ccc2o1)C1CCN(Cc2cccnc2)CC1 [1-109, N-methyl-N-(1-(pyridin-3-ylmethyl)piperidin-4-yl)-5-(1-(4-(trifluoromethyl)phenyl)piperidin-4-yloxy)benzofuran-2-carboxamide]	< 0.1	
CN(C(=O)c1cc2cc(OC3CCN(c4ccc(C(F)(F)F)cc4)CC3)ccc2o1)C1CCN(Cc2cccc(C#N)c2)CC1 [1-110, N-(1-(3-cyanobenzyl)piperidin-4-yl)-N-methyl-5-(1-(4-(trifluoromethyl)phenyl)piperidin-4-yloxy)benzofuran-2-carboxamide]	< 0.1	
CN(C(=O)c1cc2cc(OC3CCN(c4ccc(C(F)(F)F)cc4)CC3)ccc2o1)C1CCN(Cc2ccccc2C#N)CC1 [1-111, N-(1-(2-cyanobenzyl)piperidin-4-yl)-N-methyl-5-(1-(4-(trifluoromethyl)phenyl)piperidin-4-yloxy)benzofuran-2-carboxamide]	0.1 to 0.5	
N#Cc1ccc(CN2CCC(Oc3ccc4oc(C(=O)NC5CCN(Cc6ccccc6)CC5)cc4c3)CC2)cc1 [1-114, N-(1-benzylpiperidin-4-yl)-5-(1-(4-cyanobenzyl)piperidin-4-yloxy)benzofuran-2-carboxamide]	0.1 to 0.5	
NC(=O)c1ccc(CN2CCC(Oc3ccc4oc(C(=O)NC5CCN(Cc6ccccc6)CC5)cc4c3)CC2)cc1 [1-116, N-(1-benzylpiperidin-4-yl)-5-(1-(4-carbamoylbenzyl)piperidin-4-yloxy)benzofuran-2-carboxamide]	0.1 to 0.5	
CN(C(=O)c1cc2cc(OC3CCN(c4ccc(C(F)(F)F)cc4)CC3)ccc2o1)C1CCN(Cc2ccc(C(F)(F)F)cc2)CC1 [1-119, N-methyl-N-(1-(4-(trifluoromethyl)benzyl)piperidin-4-yl)-5-(1-(4-(trifluoromethyl)phenyl)piperidin-4-yloxy)benzofuran-2-carboxamide]	< 0.1	
O=C(N[C@H]1CCNC1)c1cc2cc(OC3CCN(Cc4ccc(Cl)cc4)CC3)ccc2o1 [1-128, (S)-5-(1-(4-chlorobenzyl)piperidin-4-yloxy)-N-(pyrrolidin-3-yl)benzofuran-2-carboxamide]	> 10	
O=C(N[C@H]1CCN(Cc2ccncc2)C1)c1cc2cc(OC3CCN(Cc4ccc(Cl)cc4)CC3)ccc2o1 [1-129, (S)-5-(1-(4-chlorobenzyl)piperidin-4-yloxy)-N-(1-(pyridin-4-ylmethyl)pyrrolidin-3-yl)benzofuran-2-carboxamide]	1 to 5	
O=C(N[C@H]1CCN(Cc2cccnc2)C1)c1cc2cc(OC3CCN(Cc4ccc(Cl)cc4)CC3)ccc2o1 [1-130, (S)-5-(1-(4-chlorobenzyl)piperidin-4-yloxy)-N-(1-(pyridin-3-ylmethyl)pyrrolidin-3-yl)benzofuran-2-carboxamide]	1 to 5	
NC(=O)c1ccc(CN2CCC(Oc3ccc4oc(C(=O)NC5CCN(Cc6ccncc6)CC5)cc4c3)CC2)cc1 [1-131, 5-(1-(4-carbamoylbenzyl)piperidin-4-yloxy)-N-(1-(pyridin-4-ylmethyl)piperidin-4-yl)benzofuran-2-carboxamide]	1 to 5	
O=C(NC1CCN(Cc2ccncc2)CC1)c1cc2cc(OC3CCN(c4ccc(OC(F)(F)F)cc4)CC3)ccc2s1 [1-137, N-(1-(pyridin-4-ylmethyl)piperidin-4-yl)-5-(1-(4-(trifluoromethoxy)phenyl)piperidin-4-yloxy)benzo[b]thiophene-2-carboxamide]	< 0.1	
